How the values were obtained:
GLP-1R [1] = biological target: T1, GLP-1R (Homo sapiens, UniProt P43220); experiment: GLP-1R agonistic activity by cAMP detection kit in HEK293-GLP-1R-luc cells (Example 58); format: cell-based; details: 30 min incubation
Procedure: The agonistic activities of the compounds of the present disclosure on GLP-1R were evaluated by detecting the generation of cAMP.
• (1) Cell line: HEK293-GLP-1R-luc Stable Cell Line (Cobioer, CBP71117); • (2) Culture medium: DMEM+10% FBS (Gibco); • (3) Kit: cAMP detection kit (PerkinElmer). 2. Experimental Procedures • (1) HEK293-GLP1R cells were inoculated in a 384-well plate at a density of 2000 cells per well; • (2) 4× working solution of each compound was formulated; • (3) 5 μL of 4× working solution of each compound was added to corresponding well and incubated at 37° C. for 30 min; • (4) 10 μL of Eu-cAMP tracer diluted with Lysis Buffer (1/50) was added to each well; • (5) 10 μL of Ulight-anti-cAMP diluted with Lysis Buffer (1/150) was added to each well; • (6) The plate was incubated at room temperature for 1 h; • (7) The plate was read by a multimode microplate reader (excitation wavelength: 320 nm; emission wavelength: 665 nm and 620 nm). 3. Data Analysis • (1) % Activity was calculated by the following formula: % Activity=100−(Signalcmpd−SignalAve-PC)/(SignalAve-VC−SignalAve-PC)×100 • (2) The dose-response curve was plotted to calculate EC50: Y=Bottom+(Top−Bottom)/(1+10^(Log EC50−X)*HillSlope)) • X: log of agonist concentration; Y: Activity. 4. Experimental Results

GLP-1R [2] = biological target: T1, GLP-1R; experiment: GLP-1R agonistic activity by One-Lite luciferase assay in HEK293-GLP-1R-luc cells (Example 59); format: cell-based; details: 6 h incubation, read-out: cAMP EC50
Method in brief: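 HEK293 cells stably expressing GLP-1R with a cAMP-responsive luciferase reporter, 30000 cells/well, exposed to compound for 6 h at 37 °C. Chemiluminescence read after 3 min with One-Lite substrate at room temperature; % activity normalised to positive and vehicle controls, EC50 from a four-parameter dose-response fit.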

[3] = In vivo pharmacokinetics in rats, oral; parameters: species or system SD rats; details: for AUC(0-t) / Cmax / half-life: rat, plasma, SD rats, PO
Procedure: The compounds of the present disclosure were formulated with […]+90% 100 mM glycine-64 mM NaOH, and orally administered to fasted SD rats at a dose of 1 mg/kg or 5 mg/kg, respectively. At different time points (0.25, 0.5, 1.0, 2.0, 4.0, 5.0, 6.0, 7.0, 8.0, and 24 h) after administration, about 50 μL of blood samples were collected from veins into anticoagulant tubes containing EDTA-K2, and centrifuged to separate plasma. The plasma concentrations of the compounds were determined by LC-MS/MS. WinNonlin was used to calculate the pharmacokinetic parameters by using the non-compartmental analysis, and the experimental results were listed in Table 9.

[4] = In vivo pharmacokinetics in Macaca fascicularis, intravenous
Procedure: A clear solution of “example compound 67 in WO2018056453” in 10% PEG/90% 100 mM glycine-NaOH and a clear solution of “Compound 1” in 10% PEG/90% 100 mM glycine-NaOH were prepared. The above solutions were injected into subcutaneous veins of the fore limbs of male Macaca fascicularis (n=2) at a dose of 0.12 mg/kg, respectively. At different time points (0.083, 0.25, 0.5, 1.0, 2.0, 4.0, 8.0, 24.0, and 36 h) after administration, blood samples were collected from veins into anticoagulant tubes containing EDTA-K2, and centrifuged to separate plasma.
The drug concentrations in the plasma were determined by the LC-MS/MS method, and the pharmacokinetic software (e.g., winNonlin Version 6.3) was used to calculate the related pharmacokinetic parameters as shown in Table 10 by using the log-linear trapezoidal rule of the non-compartmental analysis.

[5] = tested on: GLP-1R humanized C57BL/6N mice fed with high-fat diets; experiment: In vivo efficacy on body weight and food intake in high-fat diet hGLP-1R mice; details: for Cumulative Food Intake on Day 27 / Change Rate of Body Weight on Day 27: gavage once daily; for Change Rate of Body Weight on Day 27: corrected by Vehicle
Procedure: The effects of long-term administration of the compounds of the present disclosure on the weight and food intake of GLP-1R humanized C57BL/6N mice fed with high-fat diets were evaluated.
• five-week-old male C57BL/6N hGLP-1R mice; • 60% high-fat diet (HFD); electronic balance. 3. Experimental Method • (1) C57BL/6N_hGLP-1R mice were fed with 60% high-fat diets until the end of the experiment. • (2) At the 10th week of HFD feeding, the model mice were randomly divided into groups according to their body weight, with 6 to 7 mice in each group. Subsequently, the single-caged mice were adaptively fed for 2 weeks. The first group was Vehicle group (Vehicle: 10% PEG 400+10% propylene glycol+80% glycine-NaOH buffer), and administered with the Vehicle; the remaining groups were drug treatment groups; the duration of administration was 27 days. • (3) The day of drug administration was defined as Day 0. At each administration, the animals were weighed and the data were recorded, and the mice were treated depending upon their body weight. • (4) The food intake of the mice in each group was measured once a day from Day 0 of the experiment. Specifically, the diets were changed after each weighing and administration, and the addition amounts and residual amounts thereof were recorded. 4. Experimental Data Processing and Statistical Analysis
The rates of change in the body weight of mice after administration were summarized and statistically analyzed.
The rate of change in the body weight corrected by Vehicle was calculated: (((BWt/BW0)−1)−(BWt-vec-avg))*100%;
BWt represented the body weight of mouse in drug treatment group on Day t; BW0 represented the body weight of mouse in drug treatment group on Day 0; BWt-vec-avg represented the average body weight of mice in Vehicle group on Day t for drug treatment groups.
The cumulative food intake of mice after drug administration was summarized and statistically analyzed.
Cumulative food intake was calculated: addition amounts (g)—residual amounts (g).
The cumulative food intake was the sum of daily food intake of each animal during the period of administration.

[6] = rats, oral, versus example compound 67 in WO2018056453, in words
[7] = Macaca fascicularis, versus example compound 67 in WO2018056453, in words
[8] = cynomolgus monkey, plasma, male Macaca fascicularis, 0.12 mg/kg

T1 sequence (P43220 24-463): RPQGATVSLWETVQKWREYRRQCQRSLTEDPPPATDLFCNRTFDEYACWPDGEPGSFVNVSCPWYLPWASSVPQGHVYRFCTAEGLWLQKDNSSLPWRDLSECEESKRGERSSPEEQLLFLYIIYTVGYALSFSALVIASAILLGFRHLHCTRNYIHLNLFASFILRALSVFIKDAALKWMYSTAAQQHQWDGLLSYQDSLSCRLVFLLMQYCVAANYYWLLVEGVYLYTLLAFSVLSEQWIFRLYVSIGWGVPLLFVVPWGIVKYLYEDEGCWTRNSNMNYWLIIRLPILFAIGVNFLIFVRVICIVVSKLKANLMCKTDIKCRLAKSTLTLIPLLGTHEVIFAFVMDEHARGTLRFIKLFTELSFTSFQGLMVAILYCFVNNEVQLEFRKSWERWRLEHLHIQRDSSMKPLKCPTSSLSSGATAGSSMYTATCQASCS

Cc1cc(-n2nc3c(c2-n2ccn(-c4ccc5c(cnn5C)c4F)c2=O)[C@H](C)N(C(=O)c2cc4cc([C@H]5CCOC(C)(C)C5)ccc4n2[C@@]2(c4noc(=O)[nH]4)C[C@@H]2C)CC32CC2)cc(C)c1F [Compound 1]
EC50 (GLP-1R [1]): ≤ 0.1 nM
EC50 (GLP-1R [2]): ≤ 20 nM
AUC(0-t) ([3]; 1 mg/kg): 2300 ng·h/mL
Cmax ([3]; 1 mg/kg): 213 ng/mL
half-life ([3]; 1 mg/kg): 10 h
AUC(0-t) ([3]; 5 mg/kg): 11800 ng·h/mL
Cmax ([3]; 5 mg/kg): 1080 ng/mL
half-life ([3]; 5 mg/kg): 12.9 h
maximum plasma concentration Cmax compared with the control compound [3, 6]: higher
oral exposure AUC compared with the control compound [3, 6]: higher
clearance (Cl) compared with the control compound [4, 7]: lower
exposure (AUC) compared with the control compound [4, 7]: higher
half-life (T1/2) compared with the control compound [4, 7]: longer
AUC(0-t) [4, 8]: 754 ng·h/mL
clearance [4, 8]: 2.63 mL/min/kg
half-life [4, 8]: 6.08 h
Cumulative Food Intake on Day 27 ([5]; 0.3 mpk): 73.91 ± 6.71 g
Change Rate of Body Weight on Day 27 ([5]; 0.3 mpk): −15.04 ± 1.90%
Cumulative Food Intake on Day 27 ([5]; 1.5 mpk): 70.01 ± 5.88 g
Change Rate of Body Weight on Day 27 ([5]; 1.5 mpk): −18.46 ± 1.98%
Cumulative Food Intake on Day 27 ([5]; 3.0 mpk): 62.75 ± 6.97 g
Change Rate of Body Weight on Day 27 ([5]; 3.0 mpk): −23.78 ± 1.61%
reduction of the body weight and inhibition of the food intake ([5]; long-term administration, 0.3 to 3 mpk, in words): excellent effects

From patent publication US12419874B2, “GLP-1R agonist compound and use thereof” (Chongqing Pharmaceutical Research Institute Co., Ltd., priority 2024, dated 2025)
